Measured values as given in ChEMBL document CHEMBL3885881, “DrugMatrix”.

Species on record: Rattus norvegicus
Assay: DrugMatrix - Regimen: Daily Repeat
Assay type: toxicity, organism-based, Sprague-Dawley
Design: regimen Daily Repeat, gender Male, age 6-8 weeks
Conditions: in vivo, po, route oral GAVAGE, vehicle .5 % CMC; for ABSOLUTE BASOPHIL / ABSOLUTE EOSINOPHIL / ABSOLUTE LYMPHOCYTE / ABSOLUTE MONOCYTE / ABSOLUTE SEGMENTED NEUTROPHIL / BASOPHIL / EOSINOPHIL / ERYTHROCYTE COUNT / HEMATOCRIT / HEMOGLOBIN / LEUKOCYTE COUNT / LYMPHOCYTE / MEAN CORPUSCULAR HEMOGLOBIN / MEAN CORPUSCULAR HEMOGLOBIN CONCENTRATION / MEAN CORPUSCULAR VOLUME / MONOCYTE / NEUTROPHIL / NUCLEATED RED BLOOD CELLS / PLATELET COUNT: tissue Blood; for ALANINE AMINOTRANSFERASE / ALBUMIN / ALKALINE PHOSPHATASE / ASPARTATE AMINOTRANSFERASE / BLOOD UREA NITROGEN / CARBON DIOXIDE / CHLORIDE / CHOLESTEROL / CREATINE PHOSPHOKINASE / CREATININE / GLUCOSE / LACTATE DEHYDROGENASE / LIPASE / PHOSPHORUS / POTASSIUM / SODIUM / TOTAL BILIRUBIN / TOTAL PROTEIN / URIC ACID: tissue Plasma
[1] = 0 mg/kg, 72 h, dose level Control, time 3 day
[2] = 0 mg/kg, 120 h, dose level Control, time 5 day
[3] = 100 mg/kg, 72 h, dose level Low, time 3 day

## CN/C(=N/CCSCc1nc[nH]c1C)NC#N [CIMETIDINE]
[1]
  ABSOLUTE BASOPHIL: 0 CELLS/uL
  ABSOLUTE EOSINOPHIL: 0 CELLS/uL
  ABSOLUTE LYMPHOCYTE: 12191.17 CELLS/uL
  ABSOLUTE MONOCYTE: 183.17 CELLS/uL
  ABSOLUTE SEGMENTED NEUTROPHIL: 1192.33 CELLS/uL
  BASOPHIL: 0%
  EOSINOPHIL: 0%
  ERYTHROCYTE COUNT: 5.51 x10E6/uL
  HEMATOCRIT: 35.45%
  HEMOGLOBIN: 13.82 G/DL
  LEUKOCYTE COUNT: 13.57 x10E3/uL
  LYMPHOCYTE: 89.83%
  MEAN CORPUSCULAR HEMOGLOBIN: 25.1 pg
  MEAN CORPUSCULAR HEMOGLOBIN CONCENTRATION: 38.98 G/DL
  MEAN CORPUSCULAR VOLUME: 64.42 fL
  MONOCYTE: 1.33%
  NEUTROPHIL: 8.83%
  NUCLEATED RED BLOOD CELLS: 0 /100WBC
  PLATELET COUNT: 1118.17 x10E3/uL
  ALANINE AMINOTRANSFERASE: 55 u/L
  ALBUMIN: 4.15 G/DL
  ALKALINE PHOSPHATASE: 449.5 u/L
  ASPARTATE AMINOTRANSFERASE: 112.83 u/L
  BLOOD UREA NITROGEN: 17.33 mg/dL
  CARBON DIOXIDE: 29.5 mmol/L
  CHLORIDE: 101 MEQ/L
  CHOLESTEROL: 70 mg/dL
  CREATINE PHOSPHOKINASE: 1325.83 u/L
  CREATININE: 0.18 mg/dL
  GLUCOSE: 171.5 mg/dL
  LACTATE DEHYDROGENASE: 386 u/L
  LIPASE: 10 u/L
  PHOSPHORUS: 11.57 mg/dL
  POTASSIUM: 6.21 MEQ/L
  SODIUM: 141.65 MEQ/L
  TOTAL BILIRUBIN: 0.15 mg/dL
  TOTAL PROTEIN: 5.75 G/DL
  URIC ACID: 1.28 mg/dL
[2]
  ABSOLUTE BASOPHIL: 0 CELLS/uL
  ABSOLUTE EOSINOPHIL: 138.17 CELLS/uL
  ABSOLUTE LYMPHOCYTE: 13283.17 CELLS/uL
  ABSOLUTE MONOCYTE: 303.83 CELLS/uL
  ABSOLUTE SEGMENTED NEUTROPHIL: 1308.17 CELLS/uL
  BASOPHIL: 0%
  EOSINOPHIL: 1%
  ERYTHROCYTE COUNT: 5.32 x10E6/uL
  HEMATOCRIT: 33.8%
  HEMOGLOBIN: 13.63 G/DL
  LEUKOCYTE COUNT: 15.03 x10E3/uL
  LYMPHOCYTE: 88.33%
  MEAN CORPUSCULAR HEMOGLOBIN: 25.68 pg
  MEAN CORPUSCULAR HEMOGLOBIN CONCENTRATION: 40.35 G/DL
  MEAN CORPUSCULAR VOLUME: 63.67 fL
  MONOCYTE: 1.83%
  NEUTROPHIL: 8.83%
  NUCLEATED RED BLOOD CELLS: 0 /100WBC
  PLATELET COUNT: 1097.5 x10E3/uL
  ALANINE AMINOTRANSFERASE: 54.5 u/L
  ALBUMIN: 4.27 G/DL
  ALKALINE PHOSPHATASE: 337 u/L
  ASPARTATE AMINOTRANSFERASE: 94.67 u/L
  BLOOD UREA NITROGEN: 17 mg/dL
  CARBON DIOXIDE: 28.33 mmol/L
  CHLORIDE: 101.5 MEQ/L
  CHOLESTEROL: 71.33 mg/dL
  CREATINE PHOSPHOKINASE: 628.17 u/L
  CREATININE: 0.19 mg/dL
  GLUCOSE: 177.83 mg/dL
  LACTATE DEHYDROGENASE: 500.5 u/L
  LIPASE: 9.5 u/L
  PHOSPHORUS: 12.3 mg/dL
  POTASSIUM: 5.63 MEQ/L
  SODIUM: 143.03 MEQ/L
  TOTAL BILIRUBIN: 0.2 mg/dL
  TOTAL PROTEIN: 6.02 G/DL
  URIC ACID: 1.5 mg/dL
[3]
  ABSOLUTE BASOPHIL: 0 CELLS/uL
  ABSOLUTE EOSINOPHIL: 0 CELLS/uL
  ABSOLUTE LYMPHOCYTE: 13567.33 CELLS/uL
  ABSOLUTE MONOCYTE: 279 CELLS/uL
  ABSOLUTE SEGMENTED NEUTROPHIL: 1153.67 CELLS/uL
  BASOPHIL: 0%
  EOSINOPHIL: 0%
  ERYTHROCYTE COUNT: 5.31 x10E6/uL
  HEMATOCRIT: 33.83%
  HEMOGLOBIN: 13.33 G/DL
  LEUKOCYTE COUNT: 15 x10E3/uL
  LYMPHOCYTE: 89.67%
  MEAN CORPUSCULAR HEMOGLOBIN: 25.1 pg
  MEAN CORPUSCULAR HEMOGLOBIN CONCENTRATION: 39.4 G/DL
  MEAN CORPUSCULAR VOLUME: 63.63 fL
  MONOCYTE: 2%
  NEUTROPHIL: 8.33%
  NUCLEATED RED BLOOD CELLS: 0 /100WBC
  PLATELET COUNT: 1282 x10E3/uL
  ALANINE AMINOTRANSFERASE: 53 u/L
  ALBUMIN: 4.17 G/DL
  ALKALINE PHOSPHATASE: 373 u/L
  ASPARTATE AMINOTRANSFERASE: 80.33 u/L
  BLOOD UREA NITROGEN: 17.67 mg/dL
  CARBON DIOXIDE: 30 mmol/L
  CHLORIDE: 100.33 MEQ/L
  CHOLESTEROL: 78.33 mg/dL
  CREATINE PHOSPHOKINASE: 276 u/L
  CREATININE: 0.18 mg/dL
  GLUCOSE: 159.67 mg/dL
  LACTATE DEHYDROGENASE: 157.33 u/L
  LIPASE: 10 u/L
  PHOSPHORUS: 10.93 mg/dL
  POTASSIUM: 6.04 MEQ/L
  SODIUM: 141.53 MEQ/L
  TOTAL BILIRUBIN: 0.17 mg/dL
  TOTAL PROTEIN: 5.77 G/DL
  URIC ACID: 1.33 mg/dL
